The values that follow come from ChEMBL document CHEMBL1126334, “Thromboxane receptor antagonist BMS-180291: A new pre-clinical lead” (Bioorg Med Chem Lett, 1992).

Data set [1] is described as follows: Oral bioavailability in African green monkeys; 20-25. In kind it is ADME, organism-based. The note with it: chlorocebus aethiops, in vivo, read-out: Bioavailabiility.
The species entered for data set [2] is Bos taurus. The experiment in a line: Compound was tested at 1 nM for the inhibition of […] in bovine seminal vesicle microsomes; NI=No inhibition. In kind it is functional.
The species named for data set [3] is Homo sapiens. Kind of data set: Compound was tested at 1 mM for the inhibition of ADP-induced (20 uM) platelet aggregation in human platelet-rich plasma; NI=No inhibition. It counts as functional, organism-based.
The subject of data set [4] is Monkey. The experiment in a line: Oral dose of compound required to inhibit the U46,619-induced platelet aggregation in ex vivo African green monkeys. It counts as functional, Cercopithecidae.
Data set [5] relates to Mus musculus. Kind of data set: Time duration taken by the compound (0.2 mg/kg, po) to provide extended protection from U46,619 (2 mg/kg, iv) induced death. In kind it is functional.
For data set [6], the species on record is Rattus norvegicus. Kind of data set: Compound was tested for the inhibition of U46,619-induced contractions in rat aortas. The following applies: Aorta. It counts as functional.
In data set [7] the target is T1, Thromboxane-A synthase (Homo sapiens) (UniProt P24557).
T1 sequence (whole entry): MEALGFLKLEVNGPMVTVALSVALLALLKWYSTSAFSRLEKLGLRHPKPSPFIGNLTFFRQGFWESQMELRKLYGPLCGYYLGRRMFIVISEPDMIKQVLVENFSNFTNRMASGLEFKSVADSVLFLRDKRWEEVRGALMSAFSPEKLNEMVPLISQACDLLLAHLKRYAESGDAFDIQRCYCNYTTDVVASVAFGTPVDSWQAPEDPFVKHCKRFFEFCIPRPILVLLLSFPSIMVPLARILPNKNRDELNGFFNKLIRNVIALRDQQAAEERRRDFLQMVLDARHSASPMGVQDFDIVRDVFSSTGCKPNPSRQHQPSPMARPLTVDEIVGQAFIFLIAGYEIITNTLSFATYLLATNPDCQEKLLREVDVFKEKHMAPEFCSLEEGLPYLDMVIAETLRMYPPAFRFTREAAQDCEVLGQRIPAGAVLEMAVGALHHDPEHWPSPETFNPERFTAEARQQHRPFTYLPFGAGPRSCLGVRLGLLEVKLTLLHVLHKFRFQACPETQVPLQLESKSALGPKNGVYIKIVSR
Kind of data set: Compound was tested for activity against Thromboxane A2 synthase in human PRP; NI=No inhibition.

The structures appear in SMILES notation. Activity calls are given as the source filed them. The calls are words filed in the database; no cut-off is given here.

Regarding `CCCCCNC(=O)c1coc([C@H]2[C@@H](Cc3ccccc3CCC(=O)O)[C@@H]3CC[C@H]2O3)n1` [IFETROBAN], the bioavailability in data set [1] came to 20%. In addition, the outcome in data set [2], in data set [3] and in data set [7] was inactive. In data set [4], the Dose amounted to 3 mg/kg. In data set [5], this compound yielded a T50 of 14 h. The same compound showed a Kb in data set [6] of 0.56 nM.
